Reference: patent US8419943B2, “Method of removing protein-bound deleterious substances during extracorporeal renal replacement treatment” (Fresenius Medical Care Holdings, Inc., priority 2008, dated 2013)

Assays:
[1] = normal adults; cited from earlier work
[2] = biological target: albumin (Homo sapiens, UniProt P02768); assay: Competitive displacement of indoxyl sulfate by bilirubin in model uremic plasma; type: binding; conditions: uremic plasma (BUN about 55 mg/dL, albumin 3.82 g/dL) with 2 mMolar Bil-DT, 12 hours at 37° C.; control without Bil-DT 0.65 μg/ml
Sequence of albumin (P02768 25-609): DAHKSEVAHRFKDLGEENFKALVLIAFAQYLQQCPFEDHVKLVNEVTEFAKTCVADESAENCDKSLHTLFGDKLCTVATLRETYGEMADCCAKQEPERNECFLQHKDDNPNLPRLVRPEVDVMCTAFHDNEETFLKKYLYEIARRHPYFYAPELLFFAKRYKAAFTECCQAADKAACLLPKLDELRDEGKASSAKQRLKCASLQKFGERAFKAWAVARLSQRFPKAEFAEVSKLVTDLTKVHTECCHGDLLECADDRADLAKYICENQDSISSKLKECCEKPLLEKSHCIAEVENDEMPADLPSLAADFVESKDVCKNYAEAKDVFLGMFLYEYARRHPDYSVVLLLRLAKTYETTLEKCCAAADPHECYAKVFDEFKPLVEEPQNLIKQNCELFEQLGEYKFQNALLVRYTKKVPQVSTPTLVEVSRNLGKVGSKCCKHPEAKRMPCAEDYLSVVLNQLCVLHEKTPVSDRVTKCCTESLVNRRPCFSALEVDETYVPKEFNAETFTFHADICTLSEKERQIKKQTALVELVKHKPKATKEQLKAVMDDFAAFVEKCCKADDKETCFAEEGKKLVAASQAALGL
Method: Two samples of uremic plasma (blood urea nitrogen (BUN) of about 55 mg/dL, albumin concentration of 3.82 g/dL) including indoxyl sulfate were incubated for 12 hours at 37° C. One sample also included 2 mMolar bilirubin ditauride (Bil-DT).

| Molecule | non-toxic level of serum bilirubin concentration [1] | free indoxyl sulfate concentration [2] [µg/mL] |
| --- | --- | --- |
| C=CC1=C(C)/C(=C/c2[nH]c(Cc3[nH]c(/C=C4\NC(=O)C(C)=C4C=C)c(C)c3CCC(=O)O)c(CCC(=O)O)c2C)NC1=O [Bilirubin, bilirubin] | about 10 mg/dL | – |
| bilirubin ditauride [Bil-DT] | – | 0.93 |
